Results: the CheMixHub viscosity set
± gives the uncertainty stated by the source.

Assay: xn = mol fraction of the nth substance listed

CCCCCCCCCC(=O)OC + CCCCCCCCCCC
viscosity [mPa·s], 100 kPa
Settings	x2 = 0.0986	x2 = 0.1998	x2 = 0.2992	x2 = 0.3988	x2 = 0.4974	x2 = 0.5994	x2 = 0.6999	x2 = 0.7993	x2 = 0.899
293.15 K	1.97 ± 0.042	1.831 ± 0.039	1.717 ± 0.037	1.611 ± 0.035	1.516 ± 0.033	1.425 ± 0.031	1.342 ± 0.029	1.272 ± 0.027	1.219 ± 0.026
298.15 K	1.783 ± 0.038	1.662 ± 0.036	1.559 ± 0.034	1.468 ± 0.032	1.386 ± 0.03	1.306 ± 0.028	1.234 ± 0.026	1.169 ± 0.025	1.124 ± 0.024
303.15 K	1.625 ± 0.035	1.517 ± 0.033	1.427 ± 0.031	1.344 ± 0.029	1.268 ± 0.027	1.198 ± 0.026	1.137 ± 0.024	1.08 ± 0.023	1.039 ± 0.022
308.15 K	1.487 ± 0.032	1.392 ± 0.03	1.311 ± 0.028	1.237 ± 0.027	1.171 ± 0.025	1.109 ± 0.024	1.053 ± 0.023	1.002 ± 0.022	0.964 ± 0.021
313.15 K	1.368 ± 0.029	1.283 ± 0.028	1.211 ± 0.026	1.145 ± 0.025	1.083 ± 0.023	1.029 ± 0.022	0.978 ± 0.021	0.932 ± 0.02	0.897 ± 0.019
318.15 K	1.264 ± 0.027	1.187 ± 0.026	1.122 ± 0.024	1.062 ± 0.023	1.007 ± 0.022	0.958 ± 0.021	0.912 ± 0.02	0.871 ± 0.019	0.838 ± 0.018
323.15 K	1.172 ± 0.025	1.102 ± 0.024	1.044 ± 0.022	0.99 ± 0.021	0.939 ± 0.02	0.894 ± 0.019	0.853 ± 0.018	0.815 ± 0.018	0.786 ± 0.017

CCCCCCCCCCCCCCCC + CCCCCCCCCCCC
298.15 K, 101.33 kPa
Settings	viscosity [mPa·s]
x2 = 0.1077	2.821 ± 0.034
x2 = 0.2113	2.643 ± 0.032
x2 = 0.3061	2.467 ± 0.03
x2 = 0.4097	2.281 ± 0.028
x2 = 0.5073	2.102 ± 0.025
x2 = 0.6082	1.936 ± 0.024
x2 = 0.7053	1.767 ± 0.022
x2 = 0.8045	1.636 ± 0.02
x2 = 0.905	1.476 ± 0.018

ClC(Cl)Cl + CCCCCCCCCCO
viscosity [mPa·s], 101 kPa
Settings	303.15 K	313.15 K
x1 = 0.0523	8.774 ± 0.17	6.174 ± 0.13
x1 = 0.1025	7.938 ± 0.16	5.59 ± 0.12
x1 = 0.1519	7.108 ± 0.15	5.068 ± 0.11
x1 = 0.1992	6.311 ± 0.13	4.603 ± 0.1
x1 = 0.2501	5.65 ± 0.12	4.121 ± 0.095
x1 = 0.2992	5.021 ± 0.11	3.726 ± 0.088
x1 = 0.3497	4.374 ± 0.099	3.291 ± 0.08
x1 = 0.4005	3.838 ± 0.089	2.935 ± 0.074
x1 = 0.451	3.293 ± 0.08	2.571 ± 0.068
x1 = 0.5	2.873 ± 0.073	2.259 ± 0.063
x1 = 0.5504	2.439 ± 0.066	1.974 ± 0.059
x1 = 0.5991	2.098 ± 0.06	1.697 ± 0.055
x1 = 0.6496	1.778 ± 0.056	1.48 ± 0.052
x1 = 0.699	1.501 ± 0.052	1.251 ± 0.049
x1 = 0.7508	1.277 ± 0.049	1.076 ± 0.047
x1 = 0.799	1.052 ± 0.047	0.911 ± 0.045
x1 = 0.8513	0.916 ± 0.045	0.77 ± 0.044
x1 = 0.8999	0.784 ± 0.044	0.661 ± 0.043
x1 = 0.9501	0.651 ± 0.043	0.561 ± 0.042
